Laboratory results: publication PMC4116524, “A virtual screen identified C96 as a novel inhibitor of phosphatidylinositol 3-kinase that displays potent preclinical activity against multiple myeloma in vitro and in vivo” (Oncotarget, 2014)
Where “and” joins values, the source holds several entries; their conditions need not be identical. Identical values can stand only once. Entries after “also recorded” stand apart in the source; their conditions may differ.

What was measured:
JJN3 xenograft = test: Myeloma xenograft study; type: in vivo, nude mice
Protocol: To further evaluate the anti-myeloma efficacy of C96 in vivo, a human multiple myeloma xenograft model was established by subcutaneous injection of JJN3 into nude mice. When these tumors were palpable, mice were randomly divided into two groups (n=5) and one of them were orally administrated C96 (100 mg/kg body weight, 1/10 of the oral LD50), the other one were given the same volume of vehicle on a daily base for continued 16 days. Tumor sizes and body weight were monitored every other day. […] In contrast, the tumors in the vehicle group grew in a steady rate.
Figure 7 C96 delays myeloma tumor growth in a xenograft mouse model (A) JJN3 cells were injected subcutaneously into nude mice with a density of 30 million cells/site/mouse. When tumors were palpable, mice (n=5/group) were orally given C96 (100 mg/kg body weight) in PBS containing 10% Tween 80 and 10% DMSO daily for continuous 16 days. Tumor volumes were monitored every other day. (B) Mouse body weight was monitored every other day. (C) At the end of the experiment, tumor samples from each group were subjected to immunoblotting analysis for the expression levels of p-AKT, T-AKT, p-mTOR and mTOR with specific antibodies. GAPDH was used as a loading control.
JJN3 cells (30 million cells/injection) were inoculated s.c. into the right flanks of nude mice (5-6 weeks old, female, Shanghai Slac Laboratory Animal Co. Ltd., Shanghai). When tumors were palpable, mice were randomly divided into two groups (n=5). One group was orally administrated C96 (100 mg/kg body weight, or 1/10 oral LD50) dissolved in PBS containing 10% Tween 80 and DMSO daily for continued 16 days, another group was received the vehicle only. Tumor sizes were measured every other day with a caliper and calculated according to the formula (V=0.5236a²b, where a is the smallest superficial diameter and b is the largest superficial diameter). Body weight of each mouse was also monitored. At the end of the experiment, mice were sacrificed in a CO2 chamber containing dry ice. Tumor tissues were then excised, weighed, and snap-frozen in liquid nitrogen for further studies. To examine protein expression, tumor tissues were minced and ultrasonicated in the lysis buffer to extract proteins, which were further applied for immunoblotting analyses using specific antibodies against AKT, p-AKT, p-mTOR, mTOR, and GAPDH. This xenograft study was carried out in accordance with The Code of Ethics of the World Medical Association (Declaration of Helsinki) for experiments in animals and it was approved by the Animal Ethics and Welfare Review Board of Soochow University.

[1] = test system: ERK phosphorylation in LP1 and JJN3 cells; test: ERK phosphorylation, immunoblotting; type: cell-based; conditions: increasing concentrations, 24 hrs
Protocol: To elucidate this specificity, we first evaluated its effects on IGF-1R because IGF-1R as a receptor tyrosine kinase activates PI3K in the presence of IGF-1. To exclude the potential effects of C96 on IGF-1 signaling, LP1 and JJN3 cells were starved overnight followed by C96 or S14161 treatment for 2 hrs, and IGF-1 stimulation for 15 min. As expected, IGF-1 triggered AKT phosphorylation but it was suppressed by both C96 and the proven PI3K inhibitor S14161 without affecting total AKT expression (Figure 3A). […] Next, we evaluated other kinases including non-receptor kinase c-Src and a PI3K parallel kinase ERK which transduces external cellular signals. Both LP1 and JJN3 cells were treated with C96 at increasing concentrations that inhibited AKT and mTOR activation (Figure 2C).
Figure 3 C96 inhibits AKT but not IGF-1R, ERK or c-Src kinase activation (A) LP1 and JJN3 cells were starved overnight, then treated with 100 (μM of C96 or S14161 for 2 hrs, followed by IGF-1 (100 ng/mL) for 15 min. After incubation, cells were harvested and the expression of p-AKT, p-IGF-1R, total AKT (T-AKT), and IGF-1R proteins were detected by immunoblotting. (B) LP1 and JJN3 were treated with C96 at indicated concentrations for 24 hrs followed by immunoblotting assay for the expression of p-Src, c-Src, p-ERK, and ERK. GAPDH was used as a loading control. […]

OPM2 cells = test: Flow cytometric analysis of apoptosis (Annexin V-FITC/PI); type: cell-based; conditions: OPM2, C96 10 μM, 24 hrs; two quadrant values
Protocol: (§1) MM cells treaded with C96 at concentrations from 0 to 20 μM, 24 hrs later, cells were stained with Annexin V-FITC and PI according to the manufacturer's instruction (Sigma, St Louis, MO). Apoptotic cells were measured on a flow cytometer (FACSCalibur, Becton Dickinson) as reported as previously.

KMS11 cells = test: as above; type: cell-based; conditions: KMS11, C96 10 μM, 24 hrs; two quadrant values
Protocol: as §1

RPMI-8226 (8226) cells = test: as above; type: cell-based; conditions: 8226, C96 10 μM, 24 hrs; two quadrant values
Protocol: as §1

## O=C1NC(=O)C(=CC=Cc2cccs2)C(=O)N1 [C96, 5-(3-(2-thienyl)-2-propen-1-ylidene)-2,4,6(1H,3H,5H)-pyrimidinetrione]
JJN3 xenograft; 100 mg/kg oral daily, 16-day treatment
  effects on body weight: minimal effects
JJN3 xenograft; 100 mg/kg oral daily, 16 days
  gross toxicity: no gross toxicity
  tumor growth: almost fully suppressed tumor growth; also recorded: delayed MM tumor growth
JJN3 xenograft; 100 mg/kg oral daily, within 16 days
  tumor growth suppression: more than 90%
JJN3 xenograft; tumors excised at end of experiment, immunoblotting
  AKT and mTOR phosphorylation in myeloma tumor tissues: decreased
[1]
  phosphorylation level of ERK: did not decrease
OPM2 cells
  Annexin V/PI flow cytometry quadrant percentages: 42.12% and 21.89%
KMS11 cells
  Annexin V/PI flow cytometry quadrant percentages: 4.28% and 1.91%
RPMI-8226 (8226) cells
  Annexin V/PI flow cytometry quadrant percentages: 13.50% and 15.66%
